Source: US20250032438A1, “METHOD FOR ALLEVIATING OXIDATIVE STRESS” (Nissui Corporation, priority 2021, published 2025)

How the values were obtained:
[1] = system: Human retinal pigment epithelial cells; assay: Example 3: effect of protection from oxidative stress (CCK8 survival after 300 μM hydrogen peroxide); format: cell-based; conditions: compared to the non-treatment condition or arachidonic acid (C20:4n-6) ethyl ester at the same treatment concentration (10 or 30 μM); 24 h pre-incubation, 300 μM hydrogen peroxide 24 h; FIG. 3
Method: The medium was removed by suction, and then exchanged for a medium containing 300 μM hydrogen peroxide, followed by incubation at 37° C. and 5% CO2 for 24 hours. CCK8 (DOJINDO LABORATORIES) was added to each well, and the absorbance of the sample at 450 nm after 1.5 hours was measured.

[2] = system: Human alveolar epithelial cells; assay: Example 2: effect of protection from oxidative stress (CCK8 survival after 800 μM hydrogen peroxide); format: cell-based; conditions: 24 h pre-incubation, 800 μM hydrogen peroxide 8 h, FIG. 2
Method: Human alveolar epithelial cells were seeded on a 96-well microplate at 8×10^3/well, and cultured overnight at 37° C. and 5% CO2. […] The medium was removed by suction, and then exchanged for a medium containing 800 μM hydrogen peroxide, followed by incubation at 37° C. and 5% CO2 for 8 hours. CCK8 (DOJINDO LABORATORIES) was added to each well, and the absorbance of the sample at 450 nm after 1.5 hours was measured. The relative survival rate of each treatment section was calculated, where the absorbance value of a well without hydrogen peroxide treatment was 1. • Test section 1: control • Test section 2: hydrogen peroxide • Test section 3: 10 μM arachidonic acid (C20:4n-6) ethyl ester+hydrogen peroxide • Test section 4: 30 μM arachidonic acid (C20:4n-6) ethyl ester+hydrogen peroxide • Test section 5: 10 μM C32:4n-6 ethyl ester+hydrogen peroxide • Test section 6: 30 μM C32:4n-6 ethyl ester+hydrogen peroxide

[3] = system: Human retinal pigment epithelial cells; assay: Example 4: effect of protection from oxidative stress (CCK8 survival after hydrogen peroxide); format: cell-based; conditions: compared to the non-treatment condition or eicosapentaenoic acid (C20:5n-3) ethyl ester at the same treatment concentration (10 or 30 μM); 24 h pre-incubation, hydrogen peroxide 24 h; FIG. 4
Method: The medium was removed by suction, and then exchanged for a medium containing […] hydrogen peroxide, followed by incubation at 37° C. and 5% CO2 for 24 hours. CCK8 (DOJINDO LABORATORIES) was added to each well, and the absorbance of the sample at 450 nm after 1.5 hours was measured. The relative survival rate of each treatment section was calculated, where the absorbance value of a well without hydrogen peroxide treatment was 1. • Test section 1: control • Test section 2: hydrogen peroxide • Test section 3: 10 μM eicosapentaenoic acid […] ethyl ester+hydrogen peroxide • Test section 4: 30 μM eicosapentaenoic acid […] ethyl ester+hydrogen peroxide • Test section 5: 10 μM C34:5n-3 ethyl ester+hydrogen peroxide • Test section 6: 30 μM C34:5n-3 ethyl ester+hydrogen peroxide

[4] = system: Human alveolar epithelial cells; conditions: 800 μM hydrogen peroxide for 1 hour, compared to non-treatment section; FIG. 1
Method: Human alveolar epithelial cells were seeded on a 96-well microplate at 1.5×10^4/well, and cultured overnight at 37° C. and 5% CO2. The medium was removed by suction, and exchanged for a medium containing 40 μM DCFH-DA (Wako Pure Chemical Industries, Ltd.), followed by incubation for 30 minutes. […] The fluorescence intensity at each of 485 nm in excitation and 538 nm in emission was measured with a fluorescence plate reader.

[5] = compared to the section treated with hydrogen peroxide alone, 10 or 30 μM

CCCCC/C=C\C/C=C\C/C=C\C/C=C\CCCCCCCCCCCCCCCC(=O)OCC [C32:4n-6 ethyl ester]
relative cell survival rate after hydrogen peroxide treatment [1]: significantly higher
relative cell survival rate after hydrogen peroxide treatment ([2]; compared to arachidonic acid (C20:4n-6) ethyl ester at the same treatment concentration (10 or 30 μM)): significantly higher
relative cell survival rate after hydrogen peroxide treatment [2, 5]: significantly higher

CCC=CCC=CCC=CCC=CCC=CCCCCCCCCCCCCCCCCCC(=O)OCC [C34:5n-3 ethyl ester]
relative cell survival rate after hydrogen peroxide treatment [3]: significantly higher

CCCCC/C=C\C/C=C\C/C=C\C/C=C\CCCC(=O)OCC [arachidonic acid (C20:4n-6) ethyl ester, reference compound]
relative cell survival rate after hydrogen peroxide treatment [2, 5]: significantly lower

OO [hydrogen peroxide]
relative production amount of ROS (reactive oxygen species) [4]: significantly larger
